Experimental data reported in patent publication US4738954A, “Novel N^6 -substituted-5'-oxidized adenosine analogs” (Warner-Lambert Company, priority 1985, dated 1988).

Tests used:
adenosine A1 receptor = biological target: T1, adenosine A1 receptor (Rattus norvegicus, UniProt P25099); test: Adenosine Receptor Binding--A1 Receptor Affinity (RBA1), [3H]-CHA displacement; details: 1.0 nM [3H]-CHA, rat brain, 25° C, 1 h; read-out: RBA-1 (IC50, A1 receptor affinity)
T1 construct: Whole brain minus cerebellum and brainstem from male Long Evans rats; from tissue; host or cells: rat whole brain minus cerebellum and brainstem, membranes
T1 sequence (P25099 1-326): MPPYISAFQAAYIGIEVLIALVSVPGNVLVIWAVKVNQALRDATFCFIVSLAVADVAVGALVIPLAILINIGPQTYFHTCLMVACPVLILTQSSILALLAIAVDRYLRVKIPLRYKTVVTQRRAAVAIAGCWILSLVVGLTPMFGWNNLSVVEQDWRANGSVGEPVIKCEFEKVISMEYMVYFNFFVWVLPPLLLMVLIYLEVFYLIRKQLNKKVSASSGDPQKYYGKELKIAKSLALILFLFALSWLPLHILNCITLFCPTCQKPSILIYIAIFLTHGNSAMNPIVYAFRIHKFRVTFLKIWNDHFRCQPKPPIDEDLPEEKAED
Method: Adenosine Receptor Binding--A1 Receptor Affinity (RBA1)
Whole brain minus cerebellum and brainstem from male Long Evans rats (105-200 g) was homogenized in 30 volumes of ice-cold 0.05M Tris-HCl buffer pH 7.7 using a Brinkman Polytron PT-10, (setting number 6 for 20 seconds) and centrifuged for ten minutes at 20,000×g (Sorvall RC-2), 4° C. The supernatant was discarded, and the pellet was resuspended and centrifuged as before. The pellet was resuspended in 20 ml Tris-HCl buffer containing two International Units/ml of adenosine deaminase (Sigma type III from calf intestinal mucosa), incubated at 37° C. for 30 minutes, then subsequently at 0° C. for ten minutes. The homogenate was again centrifuged, and the final pellet was resuspended in ice-cold 0.05M Tris-HCl buffer pH 7.7 to a concentration of 20 mg/ml original wet tissue weight and used immediately.
Tissue homogenate (10 mg/ml) was incubated in 0.05M Tris-HCl buffer pH 7.7 containing 1.0 nM ((^3 H))-N^6 -cyclohexyladenosine ([^3 H]-CHA) with or without test agents in triplicate for one hour at 25° C. Incubation volume was 2 ml. Unbound [^3 H]-CHA was separated by rapid filtration under reduced pressure through Whatman glass fiber (GF/B) filters. The filters were rinsed three times with 5 ml of ice cold 0.05M Tris-HCl buffer pH 7.7. The radio-labeled ligand retained on the filter was measured by liquid scintillation spectrophotometry after shaking the filters for one hour or longer on a mechanical shaker in 10 ml of Beckman Ready-Solv HP scintillation cocktail.
Nonspecific binding was defined as the binding which occured in the presence of 1 mM theophylline. The concentration of test agent which inhibited 50% of the specific binding (IC50) was determined by nonlinear computer curve fit. The Scatchard plot was calculated by linear regression of the line obtained by plotting the amount of radioligand bound (pmoles/gram of tissue) versus [formula] Since the amount of radioligand bound was a small fraction of the total amount added, free radioligand was defined as the concentration of (nM) of radioligand added to the incubation mixture. The Hill coefficient was calculated by linear regression of the line obtained by plotting the log of the bound radioligand vs the log of the [formula] The maximal number of binding sites (Bmax) was calculated from the Scatchard plot.

[1] = system: platelets (ADP-induced aggregation); test: Antithrombocyte aggregation test in vitro (ATA-8), ADP-induced, platelet rich plasma; format: cell-based, human (Community Research Clinic volunteers); details: Homo sapiens
Method: (§1) ANTITHROMBOCYTE AGGREGATION TEST-IN VITRO (ATA-8)
(§2) Source and Preparation of Platelet Suspensions
(§3) Blood is collected from Community Research Clinic volunteers who have not ingested aspirin or other non-steroidol antiinflammatory drugs within the preceeding two weeks and have not eaten within the nine hours before blood draw. Blood is taken in 4.5 ml portions in Vacutainer No. 6462S silicone-coated tubes or equivalent containing 0.5 ml of 3.8% trisodium citrate. Usually six or eight portions of 4.5 ml are drawn from each volunteer. The blood collected from three or four volunteers is pooled prior to centrifugation. The pooled blood is put in 50 ml polyethylene tubes and centrifuged at 80×g (ca 600 rpm) for 20 min in an International Model K centrifuge at room temperature. […] The platelet count of the PRP is determined with a Coulter Thromobocounter. […]
(§4) Platelet-rich plasma adjusted to 250,000 platelets per microliter is distributed in 0.36 ml aliquots into silicone-coated cuvettes of 0.312 inch diameter. […] Extent of aggregation, using ADP stimulus, or rate of aggregation, using collagen stimulus, is determined using the Payton Scientific Dual Channel Aggregation Module, Model 300B. Appropriate concentrations of ADP or collagen are determined by an initial brief titration. […]

[2] = system: platelets (collagen-induced aggregation); test: Antithrombocyte aggregation test in vitro (ATA-8), collagen-induced, platelet rich plasma; format: cell-based, human (Community Research Clinic volunteers); details: Homo sapiens
Method: as §1, §2
as §3, with “centrifugation.” for “centrifugation. The pooled blood is put in 50 ml polyethylene tubes and centrifuged at 80×g (ca 600 rpm) for 20 min in an International Model K centrifuge at room temperature.”
as §4
The major slope (that is, the slope of the first straight line portion) of the collagen-induced aggregation curve for each drug concentration is determined and compared to the slope of the curve for control aggregations. […]

| IC50 (adenosine A1 receptor) | IC50 [1] | IC50 [2] | SMILES |
| --- | --- | --- | --- |
| 16 nM |  |  | CCNC(=O)[C@H]1O[C@@H](n2cnc3c(NCC(c4ccccc4)c4ccccc4)ncnc32)[C@H](O)[C@@H]1O [Example 3, N^6-(2,2-diphenylethyl)-adenosine-5'-ethylcarboxamide] |
| 49 nM |  |  | CCNC(=O)[C@H]1O[C@@H](n2cnc3c(NCc4cccc5ccccc45)ncnc32)[C@H](O)[C@@H]1O [Example 6, N-6-Naphthylmethyladenosine-5'-ethylcarboxamide] |
| 291 nM |  |  | CCOC(=O)[C@H]1O[C@@H](n2cnc3c(NCC(c4ccccc4)c4ccccc4)ncnc32)[C@H](O)[C@@H]1O [Example 5, N6-(2,2-diphenylethyl)-5-adenosine-5'-ethylcarboxylate] |

Continued, compound first:

| SMILES | IC50 (adenosine A1 receptor) | IC50 [1] | IC50 [2] |
| --- | --- | --- | --- |
| CCOC(=O)[C@H]1O[C@@H](n2cnc3c(NC4CC5CCC4C5)ncnc32)[C@H](O)[C@@H]1O (relative stereo) [Example 8, N-6-Norbornyl-adenosine-5'ethylcarboxylate] | 4 nM |  |  |
| CCNC(=O)[C@H]1O[C@@H](n2cnc3c(N[C@H](C)Cc4ccccc4)ncnc32)[C@H](O)[C@@H]1O [Example 1, (R)-N-6-[(2-phenyl-1-methyl)ethyl]-adenosine-5'-ethylcarboxamide] | 2 nM | 600 nM | 200 nM |
